Assay: mn = molality of the nth substance listed, in mol/kg
Settings: 100 kPa, Liquid, Vibrating tube method

COS(=O)(=O)[O-].Cn1cc[n+](C)c1 [1,3-dimethylimidazolium methylsulfate] + O
mass density [kg/m3]
Settings | m1 = 0.0333 | m1 = 0.052 | m1 = 0.0743 | m1 = 0.0945 | m1 = 0.1147 | m1 = 0.1309 | m1 = 0.1517 | m1 = 0.1791
288.15 K | 1000.78 | 1001.71 | 1002.81 | 1003.79 | 1004.77 | 1005.55 | 1006.54 | 1007.82
298.15 K | 998.673 | 999.578 | 1000.65 | 1001.61 | 1002.57 | 1003.33 | 1004.3 | 1005.56
308.15 K | 995.619 | 996.505 | 997.553 | 998.494 | 999.435 | 1000.18 | 1001.14 | 1002.38
318.15 K | 991.771 | 992.648 | 993.684 | 994.617 | 995.542 | 996.28 | 997.222 | 998.46

CCCCn1cc[n+](C)c1.[Br-] [1-butyl-3-methylimidazolium bromide] + O
mass density [kg/m3]
Settings | m1 = 0.0317 | m1 = 0.0585 | m1 = 0.073 | m1 = 0.0916 | m1 = 0.114 | m1 = 0.1319 | m1 = 0.1508 | m1 = 0.1706 | m1 = 0.191
288.15 K | 1000.71 | 1002.05 | 1002.78 | 1003.7 | 1004.8 | 1005.69 | 1006.6 | 1007.56 | 1008.55
298.15 K | 998.612 | 999.924 | 1000.63 | 1001.53 | 1002.61 | 1003.47 | 1004.36 | 1005.3 | 1006.26
308.15 K | 995.556 | 996.84 | 997.535 | 998.413 | 999.47 | 1000.32 | 1001.19 | 1002.12 | 1003.07
318.15 K | 991.699 | 992.959 | 993.641 | 994.509 | 995.544 | 996.382 | 997.243 | 998.148 | 999.08

CCCCn1cc[n+](C)c1.[Cl-] [1-butyl-3-methylimidazolium chloride] + O
mass density [kg/m3]
Settings | 288.15 K | 298.15 K | 308.15 K | 318.15 K
m1 = 0.0323 | 999.529 | 997.423 | 994.372 | 990.507
m1 = 0.0586 | 999.875 | 997.736 | 994.658 | 990.768
m1 = 0.0739 | 1000.08 | 997.92 | 994.834 | 990.922
m1 = 0.0899 | 1000.29 | 998.113 | 995.007 | 991.091
m1 = 0.1048 | 1000.49 | 998.297 | 995.182 | 991.26
m1 = 0.1254 | 1000.76 | 998.55 | 995.409 | 991.473
m1 = 0.1437 | 1001.01 | 998.776 | 995.622 | 991.68
m1 = 0.1687 | 1001.33 | 999.091 | 995.913 | 991.942
m1 = 0.1789 | 1001.47 | 999.214 | 996.039 | 992.06
m1 = 0.191 | 1001.63 | 999.373 | 996.185 | 992.216
m1 = 0.2204 | 1002.03 | 999.752 | 996.541 | 992.538

CCCCn1cc[n+](C)c1.F[B-](F)(F)F [1-butyl-3-methylimidazolium tetrafluoroborate] + O
mass density [kg/m3]
Settings | m1 = 0.0311 | m1 = 0.0527 | m1 = 0.072 | m1 = 0.0904 | m1 = 0.1103 | m1 = 0.1326 | m1 = 0.1525 | m1 = 0.1788
288.15 K | 1000.38 | 1001.26 | 1002.03 | 1002.76 | 1003.54 | 1004.4 | 1005.17 | 1006.16
298.15 K | 998.274 | 999.116 | 999.86 | 1000.56 | 1001.31 | 1002.13 | 1002.86 | 1003.82
308.15 K | 995.194 | 995.999 | 996.713 | 997.385 | 998.11 | 998.921 | 999.635 | 1000.58
318.15 K | 991.332 | 992.114 | 992.809 | 993.467 | 994.171 | 994.948 | 995.643 | 996.555

CCOS(=O)(=O)[O-].CCn1cc[n+](C)c1 [1-ethyl-3-methylimidazolium ethyl sulfate] + O
mass density [kg/m3]
Settings | m1 = 0.0313 | m1 = 0.0499 | m1 = 0.0682 | m1 = 0.0901 | m1 = 0.1095 | m1 = 0.1322
288.15 K | 1000.55 | 1001.4 | 1002.22 | 1003.21 | 1004.08 | 1005.09
298.15 K | 998.448 | 999.27 | 1000.07 | 1001.04 | 1001.87 | 1002.86
308.15 K | 995.398 | 996.212 | 996.995 | 997.93 | 998.762 | 999.712
318.15 K | 991.566 | 992.377 | 993.169 | 994.105 | 994.936 | 995.897

CCCCCCCCn1cc[n+](C)c1.[Br-] [1-methyl-3-octylimidazolium bromide] + O
mass density [kg/m3]
Settings | m1 = 0.0323 | m1 = 0.0501 | m1 = 0.0722 | m1 = 0.0908 | m1 = 0.1112 | m1 = 0.1301 | m1 = 0.1485 | m1 = 0.1707 | m1 = 0.191
288.15 K | 1000.51 | 1001.28 | 1002.24 | 1003.03 | 1003.9 | 1004.69 | 1005.47 | 1006.39 | 1007.25
298.15 K | 998.383 | 999.121 | 1000.02 | 1000.77 | 1001.6 | 1002.36 | 1003.08 | 1003.99 | 1004.77
308.15 K | 995.284 | 995.975 | 996.827 | 997.539 | 998.314 | 999.033 | 999.725 | 1000.54 | 1001.3
318.15 K | 991.366 | 992.011 | 992.796 | 993.46 | 994.171 | 994.852 | 995.483 | 996.26 | 996.981

CCCCCCn1cc[n+](C)c1.[Br-] [3-hexyl-1-methyl-1H-imidazolium bromide] + O
mass density [kg/m3]
Settings | m1 = 0.0314 | m1 = 0.0515 | m1 = 0.0703 | m1 = 0.0881 | m1 = 0.1098 | m1 = 0.131 | m1 = 0.1505 | m1 = 0.1711 | m1 = 0.1903
288.15 K | 1000.58 | 1001.52 | 1002.4 | 1003.23 | 1004.23 | 1005.18 | 1006.08 | 1007 | 1007.87
298.15 K | 998.466 | 999.368 | 1000.21 | 1001 | 1001.96 | 1002.88 | 1003.74 | 1004.64 | 1005.47
308.15 K | 995.404 | 996.284 | 997.097 | 997.858 | 998.787 | 999.688 | 1000.5 | 1001.4 | 1002.2
318.15 K | 991.535 | 992.389 | 993.185 | 993.932 | 994.837 | 995.704 | 996.521 | 997.358 | 998.139

From the NIST ThermoML archive (doi:10.1021/je501161t)
